How the values were obtained:
[1] = system: dogs; assay: Measurement of onset of liquid stool in dogs challenged with KleanPrep; format: in vivo, dog; settings: for ED50: Canis lupus familiaris, read-out: ED50 for liquid stools within 6 hours after administration of KleanPrep
Procedure: Measurement of Onset of Liquid Stool
The dogs were orally or subcutaneously pretreated with test compounds or distilled water (0.5 ml/kg) and 1 hour later challenged by gavage with KleanPrep™ (standard volume: 2×200 ml at a 15 minutes interval). The time interval at which the first liquid stool occurred was noted (in minutes after the first administration of KleanPrep™) up to 6 hours after challenge.
The KleanPrep™ preparation consisted of polyethyleneglycol 3350 (59.000 g/l), sodium sulphate (5.685 g/l), sodium hydrogencarbonate (1.685 g/l), sodium chloride (1.465 g/l), potassium chloride (0.7425 g/l), aspartate (0.0494 g/l) and vanilla (0.3291 g/l).
In a pilot study on five dogs, large volumes of KleanPrep™ (1400, 1400, 1800, 2800, 2800 ml) and relatively long time intervals (95, 101, 124, 211 and 305 minutes after KleanPrep™) were required to obtain liquid stools within an observation period of 6 hours. In the present experiments, a standard volume of 400 ml KleanPrep™ solution (2×200 ml at a 15 minutes interval) was used. Under these conditions, liquid stools were not observed up to 6 hours after KleanPrep™, neither in 40 control dogs pretreated with a single dose of distilled water (0.5 ml/kg, p.o., −1 hour), nor in 35 control dogs pretreated with two doses of distilled water (0.5 ml/kg, p.o., −1 hour) immediately after each other, nor in 10 dogs pretreated with a dose of distilled water (0.5 ml/kg, p.o., −1 hour) and a dose of saline (0.5 ml/kg, s.c., −1 hour), nor in 5 dogs treated with two doses of distilled water (0.5 ml/kg, p.o., −1 hour) and a dose of saline (0.5 ml/kg, s.c., −1 hour).

[2] = biological target: T1, 5HT4 receptor (Cavia porcellus, UniProt O70528); assay: Electrically stimulated guinea-pig ileum longitudinal muscle-myenteric plexus strips (titled in vitro binding affinity for the 5HT4 receptor); format: cell-based; settings: submaximal electrical stimulation
T1 construct: The longitudinal muscle layer with myenteric plexus was removed; from tissue; host or cells: guinea-pig ileum longitudinal muscle with myenteric plexus
From the text: Dunkin-Hartley guinea-pigs of either sex (weighing between 600-900 g) were killed by decapitation. The ileum was removed and cleansed with warmed and oxygenated Krebs-Henseleit solution. Parts of the ileum (15 cm) were slipped over a glass pipette. The longitudinal muscle layer with myenteric plexus was removed by means of a cotton thread moistened with Krebs solution. Strips with a length of 8 cm were folded and these strips (4 cm) were mounted between two platinum electrodes (8 cm length, 0.5 cm apart). […] The preparations were excited with single rectangular stimuli [1 ms; 0.1 Hz; submaximal response (current leading to 80% of maximal response), from a programmable stimulator (Janssen Scientific Instruments Division)]. Contractions were measured isometrically (Statham UC2, Janssen Scientific Instruments amplifier, Kipp BD-9 pen-recorder). During the stabilization period of 30 minutes, the strips were repeatedly stretched, in order to obtain a steady state tension of 1.5 g. Before starting the electrical stimulation, a cumulative concentration response curve of acetylcholine (3.10^−9, 10^−8, 3.10^−8 and 10^−7 M) was given. The bath fluid was replaced with fresh Krebs solution and the strips were allowed to stabilize for another 30 minutes. Subsequently, the strips were stimulated electrically (power stimulator) at a frequency of 0.1 Hz for 1 ms. […]

[3] = of 35 dogs, Compound A 0.01 mg/kg p.o. + distilled water, 1 h before KleanPrep
[4] = dogs pretreated with Compound A 0.01 mg/kg, 5HT4 agonist co-administered, + KleanPrep
[5] = dogs pretreated with Compound A 0.01 mg/kg, 5HT4 agonist co-administered, + KleanPrep, shortest median reached (down to)
[6] = dogs, 5HT4 agonist alone 1 h before KleanPrep 2×200 ml

T1 sequence (O70528 whole entry): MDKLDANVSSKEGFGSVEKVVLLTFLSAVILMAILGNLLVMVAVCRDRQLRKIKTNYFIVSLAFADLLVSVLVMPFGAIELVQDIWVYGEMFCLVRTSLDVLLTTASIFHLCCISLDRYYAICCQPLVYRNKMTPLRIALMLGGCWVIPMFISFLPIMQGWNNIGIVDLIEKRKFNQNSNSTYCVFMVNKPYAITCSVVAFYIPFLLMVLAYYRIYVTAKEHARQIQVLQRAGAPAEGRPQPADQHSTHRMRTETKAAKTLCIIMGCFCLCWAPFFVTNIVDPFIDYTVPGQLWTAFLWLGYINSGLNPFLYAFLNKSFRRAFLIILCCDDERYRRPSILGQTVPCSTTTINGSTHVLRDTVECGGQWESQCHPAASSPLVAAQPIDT

| SMILES | median onset of the first liquid stool after administration of KleanPrep ([1]; dogs, Compound A 0.01 mg/kg p.o. + KleanPrep, no 5HT4 agonist (control)) [min] | number of dogs displaying liquid stools within 1 hour [1, 3] | number of dogs displaying liquid stools within 6 hours [1, 3] | ED50 for liquid stools within 1 hour [1, 4] [mg/kg] | median onset of the first liquid stool after administration of KleanPrep [1, 5] [min] | dose up to which liquid stools were not induced over the 6 hour observation period [1, 6] [mg/kg] | EC50 [2] [nM] | ED50 [1, 6] [mg/kg] | dose up to which liquid stools within 1 hour were not obtained [1, 6] [mg/kg] |
| --- | --- | --- | --- | --- | --- | --- | --- | --- | --- |
| CO[C@@H]1CN(CCCNc2nccc(=O)[nH]2)CC[C@@H]1NC(=O)c1cc(Cl)c(N)c2c1OC(C)(C)C2 (relative stereo) [Compound A, (−)-cis-4-amino-5-chloro-2,3-dihydro-N-[1-[3-[(3,4-dihydro-4-oxo-2-pyrimidinyl)-amino]propyl]-3-methoxy-4-piperidinyl]-2,2-dimethyl-7-benzofurancarboxamide] | 125 | two | Thirty-three | – | – | – | – | – | – |
| COCCCN1CC[C@@H](CNC(=O)c2cc(Cl)c(N)c3c2OC(C)(C)C3)[C@H](O)C1 [Compound B, (3S-trans)-4-amino-5-chloro-2,3-dihydro-N-[[3-hydroxy-1-(3-methoxypropyl)-4-piperidinyl]methyl]-2,2-dimethyl-7-benzofuran-carboxamide] | – | – | – | 0.0014 | 29 | > 2.5 | 1.6 | – | – |
| COc1cc(N)c(Cl)cc1C(=O)NC1CCN(CCCOc2ccc(F)cc2)CC1OC (centres unmarked) [cisapride] | – | – | – | 0.056 | 24 | – | – | 0.89 | – |
| COCCCN1CCC(NC(=O)c2cc(Cl)c(N)c3c2OCC3)CC1 [prucalopride] | – | – | – | 0.22 | 32 | – | – | 2.3 | > 5 |

From US20040096423A1, “Use of a triple combination comprising a 5ht3 antagonist, a 5ht4agonist and a laxative for promoting intestinal lavage” (priority 2000, published 2004)
